Source: patent US20220296618A1, “ANTI-INFLAMMATORY COMPOUNDS FOR USE IN THE TREATMENT OF DERMAL DISORDERS” (COUNCIL OF SCIENTIFIC & INDUSTRIAL RESEARCH, priority 2019, published 2022)

Experiments:
[1] = tested on: wound on the dorsal skin of diabetic (db/db) mice; experiment: Diabetic wound healing (1 cm^2 punch biopsy wound) in db/db mice, topical cream; type: in vivo; settings: for Wound healing observed animals in a group on day 10 / % of Wound healing: topical once daily; for Wound healing observed animals in a group on day 10: 5 animals in the group; for % of Wound healing: day 10
Excerpt: Method: In this study, mice of db/db strain (age: 13-14 weeks) were used as this strain is more analogous to diabetic wound healing in humans. A 1 cm^2 wound was made using a punch biopsy on the dorsal side of the db/db mice under local anesthetic conditions. The animals were divided into 5 groups with 5 animals in each group as follows: • Group 1 (n=5): treated with vehicle alone (Diabetic Control Group). • Group 2 (n=5) treated with Compound 2 (2.5%) prepared in the vehicle. • Group 3 (n=5): treated with Compound 1 (0.625%) prepared in the vehicle. • Group 4 (n=5) treated with Compound 1 (1.25%) prepared in the vehicle. • Group 5 (n=5) treated with Compound 1 (2.5%) prepared in the vehicle. Three concentrations of Compound 1, i.e. 0.625%, 1.25%, and 2.5%, were tested for this study. The topical preparations were applied on the wound once daily for 12 days. Images of the wound area were visualized, and measurements of the wound area were recorded on each day of the study.

[2] = tested on: wound on the dorsal skin of non-diabetic C57 mice; experiment: Wound healing (1 cm^2 punch biopsy wound) in non-diabetic C57BL/6j mice, topical cream; type: in vivo; settings: topical once daily for 12 days; for Wound healing observed animals in a group: 5 animals in the group
Excerpt: Method: In this study, C57BL/6j mice strain (age: 12 weeks) were used for studying the wound healing process. A 1 cm^2 wound was made using a punch biopsy on the dorsal side of the C57 mice. The animals were divided into 5 groups consisting of 5 animals in each group as follows: • Group 6 (n=5): treated with vehicle alone (Non-Diabetic Control Group). • Group 7 (n=5) treated with Compound 2 (2.5%) prepared in the vehicle. • Group 8 (n=5): treated with Compound 1 (0.625%) prepared in the vehicle. • Group 9 (n=5) treated with Compound 1 (1.25%) prepared in the vehicle. • Group 10 (n=5) treated with Compound 1 (2.5%) prepared in the vehicle. Three concentrations of Compound 1, i.e. 0.625%, 1.25%, and 2.5%, prepared in the vehicle were tested in this study. The topical preparations were applied on the wound once daily for 12 days starting 12 hours after the wound was created. Images of the wound area were visualized, and measurements of area were recorded on each day of the study.

[3] = tested on: hepatic enzyme markers ALT and AST; settings: intraperitoneally prior to treatment with t-butyl hydroperoxide; cited from earlier work
[4] = tested on: mice skin tissues; experiment: Tensile strength of skin tissues on day 8 after treatment for 7 days; type: in vivo
Description: Method: Fresh mice skin was treated once daily and stretched between the two ends of the tensile machine with a load of 100 kg with a stretching speed of 5 mm/min. (FIG. 9).

[5] = tested on: surgical incision wound on rabbit skin; experiment: Incisional wound healing in rabbit, topical cream; type: in vivo, New Zealand rabbits; settings: 2.5% in vehicle
Excerpt: In this study, New Zealand rabbits weighing between 2.0-2.5 kg body weight were used and divided into two groups;
Control Group: Treated with the vehicle alone.
Test Group: Treated with Compound 1 (2.5%) prepared in the vehicle.
Para vertebral straight incisions of 2 cm length each were made through the entire thickness of the skin on either side of the vertebral column with the help of a sharp scalpel. After complete haemostasis, the wound was closed by means of interrupted sutures placed at equidistance points about 1 cm apart (See FIG. 6). Animals were treated once daily from day 0 to day 14 post-wounding day. Images were taken daily during the study period. Sutures were removed on day 7 and observed for wound closure.

[6] = tested on: surgical incisional wound in diabetic (db/db) mice; experiment: Incisional wound healing in diabetic (db/db) mice, with or without SIRT1 inhibitor EX-527; type: in vivo; settings: Group 12, 0.625% in vehicle, topical once daily for 7 days
Excerpt: In this study, mice of db/db strain (age: 12 weeks) were used. The animals were divided into four groups: • Group 11: Mice control treated with the vehicle alone. • Group 12 Mice treated with Compound 1 (0.625%) prepared in the vehicle. • Group 13 Mice treated with Compound 1 (0.625%) and EX-527 (0.025%) in the • vehicle. • Group 14: Mice treated with EX-527 (0.025%) in the vehicle.
Para vertebral straight incisions of 2 cm length and 1 mm depth each were made through the entire thickness of the skin, on either side of the vertebral column with the help of a sharp scalpel. After complete haemostasis, the wound was closed by means of interrupted sutures placed at equidistance points about 1 cm apart (See FIG. 8) All the groups were treated once daily for 7 days with the respective test and control preparations. Images of the wound area were taken on each day of the study by photographs and Doppler imaging. The wound area was measured using a transparent tracing sheet before and during the treatment to measure the wound closure at every 4 day interval.

[7] = tested on: IMQ-induced psoriasis in Balb/c mice; experiment: IMQ-induced psoriasis in Balb/c mice, PASI scoring; type: in vivo; settings: topical 12 h after IMQ, day 1 to 6
Description: (§1) The effect of topical administration of Compound 1 for the treatment of psoriasis was tested in this animal study. In this study, typical features of psoriasis, namely erythema, scaling, and skin thickness, were induced by the application of 5% w/w imiquimod (IMQ) cream on the dorsal skin of Balb/c mice over a period of 6 consecutive days. Animals that developed psoriasis-like symptoms were used for studying the efficacy of the Compound 1 prepared in a vehicle (as described above). In this study, male Balb/c mice (aged 6 to 8 weeks) were used. The animals were divided into 8 groups consisting of 10 animals in each group as follows:
Animals in this group were topically treated with 62.5 mg of commercially available imiquimod cream (5%) on the shaved back for 6 consecutive days (day 1 to 6 of study) at a specific time in the morning. This negative control group represents the typical psoriatic model induced by imiquimod 5% (IMQ). […]
Psoriatic area and severity index (PASI) scoring was analyzed to determine the efficacy of compositions containing a Compound 1 with appropriate controls as part of the study. The severity of inflammation of the skin was evaluated by an objective scoring system based on the clinical PASI scores. Erythema (0-4) and scaling (0-4) were scored independently where, 0-none; 1-slight; 2-moderate; 3-marked; 4-very marked. […]

[8] = tested on: IL-23; experiment: IL-23 level in skin homogenate by ELISA, IMQ-induced psoriasis model; type: in vivo, Balb/c mice; settings: day 7, ELISA
Description: as §1
An IMQ-induced psoriasis model reproduces biochemical and histopathological parameters characteristic of human psoriatic lesions. Topical application of the IMQ cream increased levels of cytokines including IL-23 and IL-17 in the treated skin tissues. The animals were euthanized on day 7. Spleen, liver and skin tissues were collected from all the animals Spleen and liver tissues were weighed. IL-17 and IL-23 levels were measured by ELISA using a commercially available kit. The skin homogenates obtained from mice of different groups were analyzed using ELISA for quantification of IL-17 and IL-23 levels as the selected interleukins are the typical inflammatory markers of psoriasis.

[9] = tested on: IMQ-induced psoriasis in Balb/c mice; experiment: Histopathology (H&E staining) of skin, IMQ-induced psoriasis model; type: in vivo; settings: 0.625% preparation; comparable to clobetasol propionate cream
Description: As a part of the efficacy study, a histopathology study was performed to study the morphological observations of the skin of mice representative of the different treatment groups. At the end of experiment, skin samples of mice from each group were fixed in 4% paraformaldehyde and embedded in paraffin. From each paraffin block, 4 μm thick sections were made and mounted on the glass slides. The sections were stained by haematoxylin and eosin and images were taken and evaluated.

## O=c1ccc2cc(O)c(O)cc2o1 [Compound 2, 6,7-dihydroxycoumarin, reference compound]
[1]; 2.5% in vehicle cream
  Wound healing observed animals in a group on day 10: 0
  % of Wound healing: 0%
[1]; Group 2, 2.5% in vehicle, topical
  Day of wound closure: ≤ 26 days
[2]; 2.5% in vehicle cream
  % of Wound healing: 90%
  Wound healing observed animals in a group: 4
[3]
  Serum levels of hepatic enzyme markers ALT and AST: lower serum levels

## NC(=O)C1CCCc2c1[nH]c1ccc(Cl)cc21 (centres unmarked) [EX527, 6-chloro-2,3,4,9-tetrahydro-1H-carbazole-1-carboxamide, reference compound]
[4]; 0.025%
  Tensile strength (N): 6.03 ± 2.51 N

## O=c1cc(CCCCCCCC[P+](c2ccccc2)(c2ccccc2)c2ccccc2)c2cc(O)c(O)cc2o1.[Br-] [Compound 1]
[1]; 0.625% in vehicle cream
  Wound healing observed animals in a group on day 10: 5
  % of Wound healing: 100%
[1]; 1.25% in vehicle cream
  Wound healing observed animals in a group on day 10: 4
  % of Wound healing: 90%
[1]; 2.5% in vehicle cream
  Wound healing observed animals in a group on day 10: 4
  % of Wound healing: 90%
[1]; Groups 3-5, 0.625%, 1.25% and 2.5% in vehicle, topical
  Day of complete closure of the wound: ≤ 10 days
[2]; 0.625% in vehicle cream
  % of Wound healing: 90%
  Wound healing observed animals in a group: 4
[2]; 1.25% in vehicle cream
  % of Wound healing: 90%
  Wound healing observed animals in a group: 4
[2]; 2.5% in vehicle cream
  % of Wound healing: 100%
  Wound healing observed animals in a group: 5
[5]; topical once daily day 0 to day 14
  Time of faster surgical wound healing versus Control Group: ≤ 8 days
[5]; topical once daily, compared to Control Group
  Surgical scar: No surgical scar was observed
[6]
  Time to complete healing of the incisional wound: ≤ 7 days
[4]; 0.625%
  Tensile strength (N): 55.33 ± 1.7 N
[7]; 0.313% in vehicle
  PASI scores over the treatment period: declines in PASI scores
[7]; 0.625% in vehicle
  PASI scores over the treatment period: better declines in PASI scores
[8]; 0.313% in vehicle
  IL-23 levels in skin tissue compared to the negative control: decline in IL-23 levels
[8]; 0.625% in vehicle
  IL-23 levels in skin tissue compared to the negative control: decline in IL-23 levels
[9]
  Histopathological amelioration of IMQ-induced psoriasis (skin and ear): ameliorated more
